According to PubChem BioAssay AID2060611 (Molecular Pharmacology Branch, DTP, NCI, 2025):

System: 628569-122-R-J1-PDC complex spheroid viability
Assay: Anticancer human tumor 628569-122-R-J1-PDC patient-derived head and neck squamous carcinoma cell line growth inhibition [CLK]
Conditions: for IC50: curve of first compound; for viability, T/C: stronger effect = lower value
Procedure, shortened: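 Patient-derived tumor cells grown as complex spheroids with HUVEC endothelial cells and mesenchymal stem cells, treated with drug combinations. Concentrations descend in half-log steps from near clinical Cmax, or from 10 microM if Cmax unknown.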

[1] = second compound 0.0316 µM, first compound 0.0316 µM
[2] = second compound 0.0316 µM, first compound 0.1 µM
[3] = second compound 0.0316 µM, first compound 0.316 µM
[4] = second compound 0.0316 µM, first compound 1 µM
[5] = second compound 0.0316 µM, first compound 3.16 µM
[6] = second compound 0.0316 µM, first compound 10 µM
[7] = second compound 0.1 µM, first compound 0.0316 µM
[8] = second compound 0.1 µM, first compound 0.1 µM
[9] = second compound 0.1 µM, first compound 0.316 µM
[10] = second compound 0.1 µM, first compound 1 µM
[11] = second compound 0.1 µM, first compound 3.16 µM
[12] = second compound 0.1 µM, first compound 10 µM
[13] = second compound 0.316 µM, first compound 0.0316 µM
[14] = second compound 0.316 µM, first compound 0.1 µM
[15] = second compound 0.316 µM, first compound 0.316 µM
[16] = second compound 0.316 µM, first compound 1 µM
[17] = second compound 0.316 µM, first compound 3.16 µM
[18] = second compound 0.316 µM, first compound 10 µM
[19] = second compound 1 µM, first compound 0.0316 µM
[20] = second compound 1 µM, first compound 0.1 µM
[21] = second compound 1 µM, first compound 0.316 µM
[22] = second compound 1 µM, first compound 1 µM
[23] = second compound 1 µM, first compound 3.16 µM
[24] = second compound 1 µM, first compound 10 µM
[25] = second compound 3.16 µM, first compound 0.0316 µM
[26] = second compound 3.16 µM, first compound 0.1 µM
[27] = second compound 3.16 µM, first compound 0.316 µM
[28] = second compound 3.16 µM, first compound 1 µM
[29] = second compound 3.16 µM, first compound 3.16 µM
[30] = second compound 3.16 µM, first compound 10 µM
[31] = second compound 10 µM, first compound 0.0316 µM
[32] = second compound 10 µM, first compound 0.1 µM
[33] = second compound 10 µM, first compound 0.316 µM
[34] = second compound 10 µM, first compound 1 µM
[35] = second compound 10 µM, first compound 3.16 µM
[36] = second compound 10 µM, first compound 10 µM
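Further: spheroids exposed to agents for seven days before readout.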
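Wherever viability, T/C is given: 100% = DMSO vehicle control viability.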

In the case of `COc1ccc([C@@H](O)c2cc(-c3ncnc4cc(N5CCOCC5)ccc34)c(F)cc2Cl)nn1` + CN1CCN(c2cc(C(=O)Nc3cc4cc(-c5cnn(C)c5)ccc4cn3)ccn2)CC1, the IC50 (second compound 0.0316 µM) is reported as 2.1 µM, the IC50 (second compound 0.1 µM) is reported as 0.314 µM and the IC50 (second compound 0.316 µM) is reported as < 0.0316 µM. The IC50 (second compound 1 µM) was < 0.0316 µM, the IC50 (second compound 3.16 µM) was < 0.0316 µM and the IC50 (second compound 10 µM) was < 0.0316 µM. For the same molecule, the viability, T/C [1] was 95.9%, the viability, T/C [2] was 88.2% and the viability, T/C [3] was 68.8%. For the same molecule, the viability, T/C [4] was 71.6%, the viability, T/C [5] was 37.3% and the viability, T/C [6] was 27.3%. The viability, T/C [7] was 86.9%, the viability, T/C [8] was 61.7% and the viability, T/C [9] was 48.8%. It also gave a viability, T/C [10] of 42.6%, a viability, T/C [11] of 34.5% and a viability, T/C [12] of 22.8%. For the same molecule, the viability, T/C [13] was 27.4%, the viability, T/C [14] was 22.6% and the viability, T/C [15] was 21.3%. The viability, T/C [16] was 15.6%, the viability, T/C [17] was 13.4% and the viability, T/C [18] was 7.64%. It also gave a viability, T/C [19] of 5.08%, a viability, T/C [20] of 4.84% and a viability, T/C [21] of 10.1%. For the same molecule, the viability, T/C [22] was 7.13%, the viability, T/C [23] was 6.18% and the viability, T/C [24] was 5.7%. The viability, T/C [25] was 7.69%, the viability, T/C [26] was 7.5% and the viability, T/C [27] was 9.02%. It also gave a viability, T/C [28] of 9.74%, a viability, T/C [29] of 6.25% and a viability, T/C [30] of 6.05%. For the same molecule, the viability, T/C [31] was 2.13%, the viability, T/C [32] was 3.81% and the viability, T/C [33] was 3.72%. It also gave a viability, T/C [34] of 1.54%, a viability, T/C [35] of 2.76% and a viability, T/C [36] of 1%.

In the case of `COc1cccc2c1C(=O)c1c(O)c3c(c(O)c1C2=O)CC(O)(C(=O)CO)CC3OC1CC(N)C(O)C(C)O1` (stereo not drawn) + CN1CCN(c2cc(C(=O)Nc3cc4cc(-c5cnn(C)c5)ccc4cn3)ccn2)CC1, the IC50 (second compound 0.0316 µM) is reported as 0.658 µM, the IC50 (second compound 0.1 µM) is reported as 0.567 µM and the IC50 (second compound 0.316 µM) is reported as < 0.0316 µM. The IC50 (second compound 1 µM) was < 0.0316 µM, the IC50 (second compound 3.16 µM) was < 0.0316 µM and the IC50 (second compound 10 µM) was < 0.0316 µM. For the same molecule, the viability, T/C [1] was 79.8%, the viability, T/C [2] was 64.6% and the viability, T/C [3] was 114%. The viability, T/C [4] was 29.3%, the viability, T/C [5] was 9.76% and the viability, T/C [6] was 6.19%. For the same molecule, the viability, T/C [7] was 69.3%, the viability, T/C [8] was 85.4% and the viability, T/C [9] was 96.8%. The viability, T/C [10] was 17.1%, the viability, T/C [11] was 11.4% and the viability, T/C [12] was 6.38%. The viability, T/C [13] was 36.8%, the viability, T/C [14] was 58% and the viability, T/C [15] was 15%. For the same molecule, the viability, T/C [16] was 4.91%, the viability, T/C [17] was 9.87% and the viability, T/C [18] was 7.68%. The viability, T/C [19] was 7.46%, the viability, T/C [20] was 5.6% and the viability, T/C [21] was 6.96%. The viability, T/C [22] was 8.8%, the viability, T/C [23] was 7.92% and the viability, T/C [24] was 4.27%. For the same molecule, the viability, T/C [25] was 10.7%, the viability, T/C [26] was 6.4% and the viability, T/C [27] was 4.58%. For the same molecule, the viability, T/C [28] was 8.38%, the viability, T/C [29] was 7.51% and the viability, T/C [30] was 3.19%. The viability, T/C [31] was 2.99%, the viability, T/C [32] was 3.91% and the viability, T/C [33] was 1.4%. The viability, T/C [34] was 7.4%, the viability, T/C [35] was 3.49% and the viability, T/C [36] was 0.29%.

`CCCS(=O)(=O)Nc1ccc(F)c(C(=O)c2c[nH]c3ncc(-c4ccc(Cl)cc4)cc23)c1F` + CNC(=O)c1ccc(Nc2nc(OC3CCCC3)c3c(-c4ccc5nc(C)oc5c4)c[nH]c3n2)c(OC)c1 was tested, and the IC50 (second compound 0.0316 µM) was > 10 µM, the IC50 (second compound 0.1 µM) was > 10 µM and the IC50 (second compound 0.316 µM) was > 10 µM. The IC50 (second compound 1 µM) was < 0.0316 µM, the IC50 (second compound 3.16 µM) was < 0.0316 µM and the IC50 (second compound 10 µM) was < 0.0316 µM. For the same molecule, the viability, T/C [1] was 85.7%, the viability, T/C [2] was 86.2% and the viability, T/C [3] was 72.4%. It also gave a viability, T/C [4] of 90.2%, a viability, T/C [5] of 91% and a viability, T/C [6] of 73.5%. It also gave a viability, T/C [7] of 58%, a viability, T/C [8] of 63.7% and a viability, T/C [9] of 54%. For the same molecule, the viability, T/C [10] was 57.4%, the viability, T/C [11] was 62% and the viability, T/C [12] was 68.4%. It also gave a viability, T/C [13] of 51.7%, a viability, T/C [14] of 49.9% and a viability, T/C [15] of 49.7%. The viability, T/C [16] was 64.8%, the viability, T/C [17] was 49.6% and the viability, T/C [18] was 56%. The viability, T/C [19] was 48%, the viability, T/C [20] was 42.3% and the viability, T/C [21] was 43.4%. For the same molecule, the viability, T/C [22] was 45.7%, the viability, T/C [23] was 52.3% and the viability, T/C [24] was 50.9%. The viability, T/C [25] was 43.9%, the viability, T/C [26] was 42.1% and the viability, T/C [27] was 46.1%. It also gave a viability, T/C [28] of 44.2%, a viability, T/C [29] of 53% and a viability, T/C [30] of 45.7%. The viability, T/C [31] was 39.7%, the viability, T/C [32] was 39.1% and the viability, T/C [33] was 40.8%. The viability, T/C [34] was 34.7%, the viability, T/C [35] was 50.4% and the viability, T/C [36] was 51.1%.

In the case of `COC1C=CCC(C)C(C)S(=O)(=O)NC(=O)c2ccc3c(c2)N(CC2CCC21)CC1(CCCc2cc(Cl)ccc21)CO3` (stereo not drawn) + CNC(=O)c1ccc(Nc2nc(OC3CCCC3)c3c(-c4ccc5nc(C)oc5c4)c[nH]c3n2)c(OC)c1, the IC50 (second compound 0.0316 µM) is reported as 2 µM, the IC50 (second compound 0.1 µM) is reported as 0.142 µM and the IC50 (second compound 0.316 µM) is reported as < 0.0316 µM. The IC50 (second compound 1 µM) was < 0.0316 µM, the IC50 (second compound 3.16 µM) was < 0.0316 µM and the IC50 (second compound 10 µM) was < 0.0316 µM. For the same molecule, the viability, T/C [1] was 103%, the viability, T/C [2] was 87.7% and the viability, T/C [3] was 64.8%. It also gave a viability, T/C [4] of 55.4%, a viability, T/C [5] of 48.4% and a viability, T/C [6] of 43.5%. For the same molecule, the viability, T/C [7] was 58.7%, the viability, T/C [8] was 51% and the viability, T/C [9] was 47.7%. It also gave a viability, T/C [10] of 40.3%, a viability, T/C [11] of 34.8% and a viability, T/C [12] of 34.3%. For the same molecule, the viability, T/C [13] was 46.3%, the viability, T/C [14] was 49.7% and the viability, T/C [15] was 36.7%. The viability, T/C [16] was 33.1%, the viability, T/C [17] was 35.8% and the viability, T/C [18] was 33.4%. The viability, T/C [19] was 51.2%, the viability, T/C [20] was 45.9% and the viability, T/C [21] was 36.9%. The viability, T/C [22] was 35.9%, the viability, T/C [23] was 46% and the viability, T/C [24] was 34.6%. For the same molecule, the viability, T/C [25] was 43.2%, the viability, T/C [26] was 41.1% and the viability, T/C [27] was 33.4%. It also gave a viability, T/C [28] of 29.4%, a viability, T/C [29] of 30.9% and a viability, T/C [30] of 25.4%. It also gave a viability, T/C [31] of 40.1%, a viability, T/C [32] of 38.4% and a viability, T/C [33] of 32.1%. The viability, T/C [34] was 30.5%, the viability, T/C [35] was 35.9% and the viability, T/C [36] was 26.4%.
